What was measured:
[1] = species: Homo sapiens; test: Selectivity index, ratio of pIC50 for EP1 receptor (unknown origin) to pEC50 for partial agonist activity at human EP4 receptor expressed in HEK293-AEQ17 cells; type: cell-based
[2] = biological target: Prostacyclin receptor (Homo sapiens) (UniProt P43119); test: Agonist activity at IP receptor (unknown origin) assessed as induction of receptor activation at 1 uM; type: functional
[3] = test system: Rattus norvegicus; test: Potency index, ratio of ED50 for CCI17474 to ED50 for test compound for analgesic activity in orally dosed rat model of Freund's complete adjuvant-induced acute inflammatory pain assessed as reversal of FCA-induced hypersensitivity; type: functional
[4] = biological target: Prostaglandin E2 receptor EP4 subtype (Homo sapiens, UniProt P35408); test: Partial agonist activity at EP4 receptor in human whole blood assessed as inhibition of LPS-induced TNFalpha production; type: functional
Sequence of Prostaglandin E2 receptor EP4 subtype (P35408 whole entry): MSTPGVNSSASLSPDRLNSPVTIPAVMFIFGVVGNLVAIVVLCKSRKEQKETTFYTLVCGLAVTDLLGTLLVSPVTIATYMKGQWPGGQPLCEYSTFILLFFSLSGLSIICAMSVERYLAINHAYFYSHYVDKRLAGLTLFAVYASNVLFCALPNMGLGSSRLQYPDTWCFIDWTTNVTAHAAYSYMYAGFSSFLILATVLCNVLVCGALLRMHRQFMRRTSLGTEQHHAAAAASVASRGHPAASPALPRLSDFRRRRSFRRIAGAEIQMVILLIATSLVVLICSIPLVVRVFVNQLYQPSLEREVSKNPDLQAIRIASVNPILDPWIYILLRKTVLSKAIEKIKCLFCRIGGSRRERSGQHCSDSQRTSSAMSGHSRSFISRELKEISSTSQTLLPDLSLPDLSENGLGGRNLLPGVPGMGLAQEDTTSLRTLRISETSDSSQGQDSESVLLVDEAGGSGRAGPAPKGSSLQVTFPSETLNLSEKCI

[5] = Intrinsic clearance in dog liver microsomes; type: ADME, Canis lupus familiaris, microsome
[6] = Half life in orally dosed cynomolgus monkey; type: ADME, organism-based, Macaca fascicularis; details: in vivo, po
[7] = biological target: T1, Prostaglandin D2 receptor (Homo sapiens, UniProt Q13258); test: Activity at DP1 receptor (unknown origin)
T1 sequence (Q13258 whole entry): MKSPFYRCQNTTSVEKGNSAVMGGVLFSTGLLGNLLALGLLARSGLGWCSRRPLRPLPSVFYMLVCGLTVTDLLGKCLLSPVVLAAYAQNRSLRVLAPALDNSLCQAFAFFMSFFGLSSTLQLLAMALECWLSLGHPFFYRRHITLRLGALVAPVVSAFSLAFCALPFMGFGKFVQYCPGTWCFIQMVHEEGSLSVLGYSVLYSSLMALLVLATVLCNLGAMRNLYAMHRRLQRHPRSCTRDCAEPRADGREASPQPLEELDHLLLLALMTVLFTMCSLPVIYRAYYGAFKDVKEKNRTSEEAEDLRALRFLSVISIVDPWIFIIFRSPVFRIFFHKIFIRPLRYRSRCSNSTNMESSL

[8] = test system: Rattus norvegicus; test: Analgesic activity in rat model of chronic constriction injury-induced neuropathic pain assessed as reversal of mechanical allodynia at 3 mg/kg dosed twice daily for 8 days; type: functional, organism-based; details: TDE = time-dependent effect
[9] = species: Homo sapiens; test: Selectivity index, ratio of pIC50 for EP3 receptor (unknown origin) to pEC50 for partial agonist activity at human EP4 receptor expressed in HEK293-AEQ17 cells; type: cell-based
[10] = biological target: Cytochrome P450 2C19 (Homo sapiens, UniProt P33261); test: Inhibition of human recombinant CYP2C19; type: ADME; details: human, recombinant enzyme
Sequence of Cytochrome P450 2C19 (P33261 whole entry): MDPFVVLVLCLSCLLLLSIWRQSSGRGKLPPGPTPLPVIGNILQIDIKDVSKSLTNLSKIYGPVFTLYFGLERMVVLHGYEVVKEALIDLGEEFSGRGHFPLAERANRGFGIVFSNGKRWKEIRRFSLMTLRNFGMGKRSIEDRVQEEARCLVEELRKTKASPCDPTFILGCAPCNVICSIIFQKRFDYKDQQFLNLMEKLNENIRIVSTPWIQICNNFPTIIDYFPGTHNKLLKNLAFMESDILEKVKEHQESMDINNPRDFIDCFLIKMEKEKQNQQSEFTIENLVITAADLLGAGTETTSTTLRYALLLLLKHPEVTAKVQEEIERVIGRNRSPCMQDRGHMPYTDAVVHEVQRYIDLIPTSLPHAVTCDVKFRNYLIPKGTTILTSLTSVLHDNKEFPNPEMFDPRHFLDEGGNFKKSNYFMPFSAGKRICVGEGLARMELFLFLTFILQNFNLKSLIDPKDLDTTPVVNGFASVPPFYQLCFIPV

[11] = biological target: Prostaglandin F2-alpha receptor (Homo sapiens, UniProt P43088); test: Activity at FP receptor (unknown origin)
Sequence of Prostaglandin F2-alpha receptor (P43088 whole entry): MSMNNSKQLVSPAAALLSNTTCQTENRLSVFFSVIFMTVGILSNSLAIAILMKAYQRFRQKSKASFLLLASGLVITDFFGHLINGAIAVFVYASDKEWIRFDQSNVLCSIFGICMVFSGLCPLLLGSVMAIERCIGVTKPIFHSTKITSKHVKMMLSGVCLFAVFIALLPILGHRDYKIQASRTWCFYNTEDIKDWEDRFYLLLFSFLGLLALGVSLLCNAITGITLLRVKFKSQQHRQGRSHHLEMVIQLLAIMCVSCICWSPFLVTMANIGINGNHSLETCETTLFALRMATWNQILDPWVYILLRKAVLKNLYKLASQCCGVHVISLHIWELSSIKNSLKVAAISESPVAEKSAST

[12] = Half life in rat at 1 mg/kg, po; type: ADME, organism-based; details: in vivo
[13] = test system: Rattus norvegicus; test: Analgesic activity in rat model of chronic joint pain dosed twice daily for 5 days; type: functional; details: 120 h
[14] = biological target: T2, Thromboxane A2 receptor (Homo sapiens, UniProt P21731); test: Activity at TP receptor (unknown origin)
T2 sequence (P21731 whole entry): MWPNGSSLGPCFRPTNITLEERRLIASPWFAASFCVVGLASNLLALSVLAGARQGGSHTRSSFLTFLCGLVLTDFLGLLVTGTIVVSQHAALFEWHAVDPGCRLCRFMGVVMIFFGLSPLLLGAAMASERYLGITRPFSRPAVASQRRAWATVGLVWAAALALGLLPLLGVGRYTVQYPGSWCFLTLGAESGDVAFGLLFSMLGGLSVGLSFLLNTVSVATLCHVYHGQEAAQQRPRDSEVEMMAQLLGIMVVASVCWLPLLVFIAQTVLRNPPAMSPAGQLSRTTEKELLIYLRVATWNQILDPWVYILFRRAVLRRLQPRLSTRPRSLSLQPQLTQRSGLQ

[15] = biological target: Cytochrome P450 3A4 (Homo sapiens, UniProt P08684); test: Inhibition of human recombinant CYP3A4 using DEF substrate; type: ADME; details: human, recombinant enzyme
Sequence of Cytochrome P450 3A4 (P08684 whole entry): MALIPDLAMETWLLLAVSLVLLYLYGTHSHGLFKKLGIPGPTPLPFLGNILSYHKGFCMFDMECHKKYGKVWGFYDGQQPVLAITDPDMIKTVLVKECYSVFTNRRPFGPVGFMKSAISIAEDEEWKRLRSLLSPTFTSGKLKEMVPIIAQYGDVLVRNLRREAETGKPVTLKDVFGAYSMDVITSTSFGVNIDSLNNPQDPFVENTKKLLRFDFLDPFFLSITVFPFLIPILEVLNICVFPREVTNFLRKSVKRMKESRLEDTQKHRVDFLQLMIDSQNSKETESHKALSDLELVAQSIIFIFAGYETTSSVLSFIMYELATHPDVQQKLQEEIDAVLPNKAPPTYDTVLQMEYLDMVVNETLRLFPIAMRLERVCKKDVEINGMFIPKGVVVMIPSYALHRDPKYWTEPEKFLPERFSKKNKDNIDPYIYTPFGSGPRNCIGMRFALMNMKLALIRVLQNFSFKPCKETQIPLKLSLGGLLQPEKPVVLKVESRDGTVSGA

[16] = Oral bioavailability in rat at 1 mg/kg; type: ADME, organism-based; details: in vivo
[17] = Oral bioavailability in dog; type: ADME, organism-based, Canis lupus familiaris; details: in vivo
[18] = test system: Cynomolgus monkey; test: Blood clearance in orally dosed cynomolgus monkey; type: ADME, organism-based, Macaca fascicularis; details: in vivo, po
[19] = test system: Rattus norvegicus; test: Analgesic activity in rat model of chronic constriction injury-induced neuropathic pain assessed as reversal of mechanical allodynia at 3 mg/kg dosed twice daily for 8 days relative to untreated control; type: functional; details: 192 h
[20] = test system: Rattus norvegicus; test: Analgesic activity in rat model of chronic joint pain assessed as reversal of pain by measuring weight bearing level at 1 mg/kg, po dosed twice daily for 5 days relative to untreated control; type: functional; details: 120 h
[21] = species: Homo sapiens; test: Selectivity index, ratio of antagonist activity at IP receptor (unknown origin) to pEC50 for partial agonist activity at human EP4 receptor expressed in HEK293-AEQ17 cells; type: cell-based
[22] = Oral bioavailability in cynomolgus monkey; type: ADME, organism-based, Macaca fascicularis; details: in vivo
[23] = Intrinsic clearance in rat liver microsomes; type: ADME, microsome
[24] = species: Homo sapiens; test: Selectivity index, ratio of pIC50 for FP receptor (unknown origin) to pEC50 for partial agonist activity at human EP4 receptor expressed in HEK293-AEQ17 cells; type: cell-based
[25] = biological target: Prostacyclin receptor (Homo sapiens) (UniProt P43119); test: Antagonist activity at IP receptor (unknown origin) assessed as inhibition of receptor activation at 1 uM; type: functional
[26] = species: Homo sapiens; test: Selectivity index, ratio of agonist activity at EP2 receptor (unknown origin) to pEC50 for partial agonist activity at human EP4 receptor expressed in HEK293-AEQ17 cells; type: cell-based
[27] = test system: Rattus norvegicus; test: Analgesic activity in rat model of Freund's complete adjuvant-induced acute inflammatory pain assessed as reversal of FCA-induced hypersensitivity at 3 mg/kg, po relative to untreated control; type: functional
[28] = biological target: Cytochrome P450 2C9 (Homo sapiens, UniProt P11712); test: Inhibition of human recombinant CYP2C9; type: ADME; details: human, recombinant enzyme
Sequence of Cytochrome P450 2C9 (P11712 whole entry): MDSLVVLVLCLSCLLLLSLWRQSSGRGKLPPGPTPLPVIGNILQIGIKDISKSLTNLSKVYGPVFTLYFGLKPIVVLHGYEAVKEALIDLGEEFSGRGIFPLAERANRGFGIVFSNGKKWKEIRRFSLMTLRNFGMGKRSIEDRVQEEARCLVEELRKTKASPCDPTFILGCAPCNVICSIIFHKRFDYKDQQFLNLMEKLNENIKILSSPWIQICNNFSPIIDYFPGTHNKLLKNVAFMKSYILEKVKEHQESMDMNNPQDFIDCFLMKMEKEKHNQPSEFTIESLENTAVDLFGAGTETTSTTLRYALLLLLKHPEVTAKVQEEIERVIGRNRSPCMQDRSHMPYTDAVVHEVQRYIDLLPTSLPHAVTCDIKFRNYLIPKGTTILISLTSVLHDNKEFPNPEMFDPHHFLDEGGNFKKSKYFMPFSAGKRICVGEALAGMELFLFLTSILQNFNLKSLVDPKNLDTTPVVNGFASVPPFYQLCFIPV

[29] = species: Homo sapiens; test: Selectivity index, ratio of pIC50 for DP1 receptor (unknown origin) to pEC50 for partial agonist activity at human EP4 receptor expressed in HEK293-AEQ17 cells; type: cell-based
[30] = test system: Canis familiaris; test: Blood clearance in orally dosed dog; type: ADME, organism-based, Canis lupus familiaris; details: in vivo, po
[31] = biological target: T3, Prostaglandin E2 receptor EP3 subtype (Homo sapiens, UniProt P43115); test: Activity at EP3 receptor (unknown origin)
T3 sequence (P43115 whole entry): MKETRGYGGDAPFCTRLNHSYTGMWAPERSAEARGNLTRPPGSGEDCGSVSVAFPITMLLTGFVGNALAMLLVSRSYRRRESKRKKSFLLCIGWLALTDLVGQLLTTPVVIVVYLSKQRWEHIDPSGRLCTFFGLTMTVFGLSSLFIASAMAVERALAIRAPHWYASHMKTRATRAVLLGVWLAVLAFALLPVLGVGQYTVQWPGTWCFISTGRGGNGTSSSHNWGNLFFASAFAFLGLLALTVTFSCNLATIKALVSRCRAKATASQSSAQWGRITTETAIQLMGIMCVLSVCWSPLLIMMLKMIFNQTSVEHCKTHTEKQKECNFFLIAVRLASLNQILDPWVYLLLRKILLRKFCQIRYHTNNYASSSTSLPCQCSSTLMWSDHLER

Sequence of Prostacyclin receptor (Homo sapiens) (P43119 whole entry): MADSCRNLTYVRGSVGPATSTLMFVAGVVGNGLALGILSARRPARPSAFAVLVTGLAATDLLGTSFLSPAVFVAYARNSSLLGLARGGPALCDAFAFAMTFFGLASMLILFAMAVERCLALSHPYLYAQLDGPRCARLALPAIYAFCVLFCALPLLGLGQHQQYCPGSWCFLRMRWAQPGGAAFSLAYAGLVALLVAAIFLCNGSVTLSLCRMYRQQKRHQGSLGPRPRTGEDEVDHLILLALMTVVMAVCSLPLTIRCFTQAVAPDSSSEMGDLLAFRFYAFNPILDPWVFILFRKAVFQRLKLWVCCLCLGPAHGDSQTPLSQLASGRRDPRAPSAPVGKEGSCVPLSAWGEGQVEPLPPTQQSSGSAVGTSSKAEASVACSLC

Activity [2]: 11%
EC50 [4]: 0.00631 µM
CLH [5]: < 1 mL/min/g
half-life [6]: 5 to 10 h
IC50 [7]: > 31.6 µM
INH [10]: > 100 µM
IC50 [11]: > 10 µM
half-life [12]: 6 h
IC50 [14]: > 10 µM
INH [15]: > 100 µM
bioavailability [16]: 112%
bioavailability [17]: 69%
clearance [18]: 4 mL/min/kg
bioavailability [22]: 50%
CLH [23]: < 1 mL/min/g
inhibition [25]: 31%
INH [28]: > 100 µM
clearance [30]: 4 mL/min/kg
IC50 [31]: > 10 µM
SMILES: CCOc1c2c(c(OCC)c3ccccc13)C(=O)N(c1ccc(CC(=O)O)c(F)c1)C2
Selectivity ratio [1]: > 100
Ratio ED50 [3]: >10
Activity [8]: Tde
Selectivity ratio [9]: > 100
ED50 [13]: 0.23 mg/kg
inhibition in vivo at 3 mg/kg [19]: 100%
inhibition in vivo at 1 mg/kg [20]: 100%
Selectivity ratio [21]: > 100
Selectivity ratio [24]: > 100
Selectivity ratio [26]: > 100
Activity [27]: 80%
Selectivity ratio [29]: > 100

— ChEMBL document CHEMBL4219215, “Discovery of {4-[4,9-bis(ethyloxy)-1-oxo-1,3-dihydro-2H-benzo[f]isoindol-2-yl]-2-fluorophenyl}acetic acid (GSK726701A), a novel EP4 receptor partial agonist for the treatment of pain” (Bioorg Med Chem Lett, 2018)
